Type in all cases: cell-based, murine
One experiment has as its system PTGS2 (COX2). Kind of experiment: PTGS2 mRNA / COX2 protein expression in WT-1 brown preadipocytes. To be noted: WT-1, 24 hours; vs vehicle. The method, then:
Total RNA was isolated with QIAzol lysis reagent (Qiagen, Valencia, Calif.) and purified by RNeasy Mini columns (Qiagen) following the manufacture's instructions. cDNA was prepared from total RNA using the Advantage RT-PCR kit (BD Biosciences, Palo Alto, Calif.) according to manufacturer's instructions. Diluted cDNA was used in a PCR reaction with SYBR Green Master Mix (Applied Biosystems, Foster City, Calif.) and primers specifically designed for detection of the gene of interest. PCR reactions were run in duplicate for each sample and quantitated in the ABI Sequence Detection System (Applied Biosystems). Data were expressed as arbitrary units after normalization to levels of expression of internal controls for each sample. Sequences of primers for specific genes are each obtained from the published literature or designed using publically available gene sequence databases. Unless otherwise indicated, gene expression data described in the examples below was obtained using QPCR.
Cells were harvested in lysis buffer (50 mM HEPES, 137 mM NaCl, 1 mM MgCl2, 1 mM CaCl2, 10 mM Na2P2O7, 10 mM NaF, 2 mM EDTA, 10% glycerol, 1% Igepal CA-630, 2 mM vanadate, 10 μg/ml of leupeptin, 10 μg/ml of aprotinin, 2 mM phenylmethylsulfonyl fluoride; pH 7.4). After lysis, lysates were clarified by centrifugation at 12,000×g for 20 min at 4° C., the amount of protein in the supernatants was determined by the Bradford Protein Assay (Bio-Rad Laboratories, Hercules, Calif.). Proteins were directly solubilized in Laemmli sample buffer. Equal amounts of lysates were separated by sodium dodecyl sulfate-polyacrylamide gel electrophoresis and transferred to Immobolin-P membranes. […] Specifically bound primary antibodies were detected with peroxidase-coupled secondary antibody and enhanced chemiluminescence (ECL, Amersham Biosciences, Piscataway, N.J.).
To determine if FGF4, FGF5, FGF6, FGF10, FGF16, FGF17, FGF18 or FGF20 induced either UCP1 mRNA or PTGS2 mRNA expression, murine brown preadipocyte WT-1 cells (Tseng et al., Nat. Cell. Biol. (2005) 7(6):601-611) were grown in growth media (DMEM-high glucose+10% FBS) supplemented with FGF4, FGF5, FGF6, FGF10, FGF16, FGF17, FGF18, FGF20 or buffer (control) in combination with insulin (20 nM) and triidothyronine (T3, 1 nM) for three days. All FGFs were used at a dosage of 200 ng/mL. mRNA was isolated and UCP1 and PTGS2 gene expression levels were evaluated by quantitative reverse transcription polymerase chain reaction (Q-RT-PCR) analysis. […]
(§1) To test the role of specific prostaglandins (PGs) in activating UCP1 expression, WT-1 brown adipocytes were pretreated with PGE2, PGI2 and FGF6 for 24 hours. mRNA expression levels of UCP1, PTGS2, LDHA, PDK1 and PKM2 were then measured.

The subject of experiment [1] is WT-1 brown preadipocytes. Kind of experiment: Seahorse Bioanalyzer cellular respiration in WT-1 brown preadipocytes. As to conditions: growth media, two days. The source says:
The Seahorse XF24 (Seahorse Bioscience, http://www.seahorsebio.com/) was utilized for respirometry to measure oxygen consumption rates (OCR; indicating oxidative phosphorylation) and extracellular acidification rates (ECAR; indicating extracellular pH) in mature brown adipocytes. The cell plates and assay cartridges for the Seahorse XF24 have four ports allowing for drug delivery to individual wells during measurement of the metabolic parameters. For a typical bioenergetic profile, cells are first treated with oligomycin to block ATP synthase, FCCP as an uncoupler and Rotenone to block Complex 1 of the ETC (all from Sigma). Example 2 provides additional details regarding the general method. […]
A profile of cellular respiration was developed by utilizing well-characterized mitochondrial toxins, as described in FIG. 5B. First, basal respiration was measured, followed by injection of oligomycin (an inhibitor of ATP synthase which allows measurement of ATP turnover). Then, the uncoupler FCCP (carbonilcyanide p-triflouromethoxyphenylhydrazone) was injected to measure respiratory capacity, followed by the complex 1 inhibitor rotenone (which prevents electron transfer activity and leaves only non-mitochondrial activity to be measured). […]
(§2) The role of PGs in regulating mitochondrial function and cellular glucose uptake was also assessed. […]

In experiment [2] the test system is WT-1 brown preadipocytes. Kind of experiment: 2-deoxy-[3H]glucose uptake in WT-1 brown preadipocytes. To be noted: growth media, two days. As for the experimental part:
The following glucose uptake assay was used to determine whether FGF6 could impact cellular glucose uptake. Specifically, glucose uptake was monitored in WT-1 brown preadipocytes and 3T3-F442A white preadipocytes in the presence or absence of FGF6. After serum starvation in DMEM/H medium containing 1% of BSA for 2-3 h, cells were washed with HEPES buffer and then incubated with or without 100 nM insulin for 30 min in DMEM/H medium containing 1% of BSA. Glucose transport was determined by the addition of 2-deoxy-[3H]glucose (0.1 mM, 0.5 μCi/mL; PerkinElmer Life and Analytical Science, Waltham, Mass.). After 5 minutes of incubation, the reaction was stopped by ice-cold PBS and cells were washed twice with ice-cold PBS. Cells were then lysed in 0.1% SDS, and glucose uptake was assessed in 4 mL of scintillant using Beckman LS6500 scintillation counter (Beckman Coulter, Indianapolis Ind.). Nonspecific 2-deoxy-[3H]glucose uptake was measured in the presence of cytochalasin B (20 μM) and was subtracted from the total uptake to get specific glucose uptake. Results were expressed as the mean±s.e.m. of the indicated number of experiments. The protein content was determined by the Bradford method.
as §2

The next experiment deals with LDHA, PDK1, PKM2. Kind of experiment: LDHA, PDK1 and PKM2 mRNA expression in WT-1 cells. As to conditions: WT-1, 24 hours; vs vehicle. The method, then: as §1

In the case of `CCCCC[C@H](O)/C=C/[C@H]1[C@H](O)CC(=O)[C@@H]1C/C=C\CCCC(=O)O` [PGE2, reference compound], in the experiment on PTGS2 (COX2), the “PTGS2 mRNA expression” value is listed as “significantly induced”. Moreover, the “oxygen consumption in WT-1 brown preadipocytes” value in the experiment with WT-1 brown preadipocytes [1] was “enhanced”. For the same compound, in the experiment on WT-1 brown preadipocytes [2], the “glucose uptake in WT-1 brown preadipocytes” value is “enhanced”. In addition, in the experiment with LDHA, PDK1, PKM2, the “LDHA mRNA expression” value is “increase”, the “PDK1 mRNA expression” value is “increase” and the “PKM2 mRNA expression” value is given as “increase”.
`CCCCC[C@H](O)/C=C/[C@@H]1[C@H]2C/C(=C/CCCC(=O)O)O[C@H]2C[C@H]1O` [PGI2, reference compound]: the “PTGS2 mRNA expression” value in the experiment with PTGS2 (COX2) is listed as “significantly induced”. For the same compound, the “oxygen consumption in WT-1 brown preadipocytes” value in the experiment on WT-1 brown preadipocytes [1] is reported as “enhanced”. Further, the “glucose uptake in WT-1 brown preadipocytes” value in the experiment with WT-1 brown preadipocytes [2] is “enhanced”. In the experiment with LDHA, PDK1, PKM2, the “LDHA mRNA expression” value is recorded as “increase”, the “PDK1 mRNA expression” value is “increase” and the “PKM2 mRNA expression” value was “increase”.

The values above are taken from patent US20170173114A1, “METHODS AND COMPOSITIONS FOR INDUCTION OF UCP1 EXPRESSION” (Joslin Diabetes Center, Inc., priority 2014, published 2017).
